Experimental findings from patent publication US5276023A, “19-nor-steroid esters” (Roussel Uclaf, priority 1989, dated 1994) are described below.

A short description of this data set: solubility in water. The data set is classed as physicochemical.

On to `CC#C[C@]1(OC(=O)CCC(=O)O)CC[C@H]2[C@@H]3CCC4=CC(=O)CCC4=C3[C@@H](c3ccc(N(C)C(C)C)cc3)C[C@@]21C` [Example 18, Sodium and 11β-[4(N-methyl-isopropylamino)-phenyl]-17α-(1-propynyl)-Δ^4,9-estradien-3-one-17β-yl succinate], for which the solubility is greater than 250 mg/mL.
